Test results taken from article PMC5860131, “Identification of natural products as novel ligands for the human 5-HT2C receptor” (Biophysics Reports, 2018).

Tests used:
5-HT2A receptor = target: T1, 5-HT2A receptor (Homo sapiens, UniProt P28223); assay: Ca2+ mobilization assay (Fluo-4, FLIPR), HEK 293T cells stably transfected with 5-HT2A; format: cell-based
T1 construct: expressed in transfected cells; host or cells: HEK 293T, stably transfected
Source text: The 5-HT2C receptor mainly couples to Gαq proteins. The activated 5-HT2C receptor transmits the signals from the extracellular to the intercellular side using DAG/IP3 (diacyl glycerol/inositol 1,4,5-trisphosphate) as its second massagers (Hannon and Hoyer [2008]). IP3 stimulates the endoplasmic reticulum to release calcium ions into the cytoplasm, which causes the increase of calcium concentration in cytosol. Therefore, calcium mobilization assay is commonly applied to understand how unknown small molecule ligands of 5-HT2C receptor modulate cellular signal transductions. In this case, Fluo-4 Direct dye was used as a fluorescence indicator to detect calcium flux in G protein-coupled receptor expressed cells. The fold of maximum response over average of basal reading is plotted against compound concentration to determine the potency of the compounds (Fig. 3). […]. […] After the dye loaded, cells were placed in a FLIPR^TETRA fluorescence imaging plate reader (Molecular Devices); drug dilutions, prepared at 3× final concentration in FLIPR buffer and aliquotted into 384-well plates, were also added to the FLIPR^TETRA. The fluidics module and plate reader of the FLIPR^TETRA were programmed to read baseline fluorescence for 10 s (1 read/s), then to add 10 μl of drug/well and to read for 6 min (1 read/s). […]

[1] = target: T2, 5-HT2C receptor A222^5.46V (Homo sapiens, UniProt P28335, A222V/DEL255-298/G251D/H250E/H252N/INS299[…]/L248D/M247A/M300L/T253W); assay: CPM thermal stability assay, 5-HT2C mutant A222V; format: binding
T2 construct: the N- and C-terminals were truncated by 39 and 65 residues, respectively; PreScission protease site + 10× His (C); made in house
Source text: (§1) Based on the binding poses predicted by molecular docking, single-point mutations were designed to test their impact on ligand binding. Mutations of several residues include the highly conserved Asp134^3.32, which is known to cause 5-HT1B or 5-HT2B receptors to abolish the monoamine ligand binding as reported in the literature (Wang et al. [2013]). In this study, residues forming hydrophobic interactions with the substitution groups on the aporphine scaffold of (–)-crebanine (1) were selected for mutation as well and they are Thr139^3.37, Gly218^5.42, Ala222^5.46, and Leu209^ECL2. Effects of those mutations were tested with the CPM assay and the affinity MS assay (Table 2). In the affinity MS experiment, relative ligand-binding capacity (represented by binding %) to different mutants and the wild-type receptor was compared. […]
(§2) Purified 5-HT2C receptor protein was thoroughly mixed with CPM fluorescent dyes. […] Fluorescence signals, wavelength 387 nm (excitation) and 463 nm (emission), were monitored (Alexandrov et al. [2008]). […] The thermal denaturation of the samples was evaluated using the scatter plot curve, where the horizontal coordinates represented temperature and the vertical coordinates indicated normalized fluorescence intensity recorded for a particular temperature. […]

[2] = target: T3, 5-HT2C receptor L209^ECL2F (Homo sapiens, UniProt P28335, DEL255-298/G251D/H250E/H252N/INS299[…]/L209F/L248D/M247A/M300L/T253W); assay: CPM thermal stability assay, 5-HT2C mutant L209F; format: binding; settings: n = 2
T3 construct: the N- and C-terminals were truncated by 39 and 65 residues, respectively; PreScission protease site + 10× His (C); made in house
Source text: as §1, §2

T2 sequence (P28335 with tags, fused parts or gaps with the stated changes): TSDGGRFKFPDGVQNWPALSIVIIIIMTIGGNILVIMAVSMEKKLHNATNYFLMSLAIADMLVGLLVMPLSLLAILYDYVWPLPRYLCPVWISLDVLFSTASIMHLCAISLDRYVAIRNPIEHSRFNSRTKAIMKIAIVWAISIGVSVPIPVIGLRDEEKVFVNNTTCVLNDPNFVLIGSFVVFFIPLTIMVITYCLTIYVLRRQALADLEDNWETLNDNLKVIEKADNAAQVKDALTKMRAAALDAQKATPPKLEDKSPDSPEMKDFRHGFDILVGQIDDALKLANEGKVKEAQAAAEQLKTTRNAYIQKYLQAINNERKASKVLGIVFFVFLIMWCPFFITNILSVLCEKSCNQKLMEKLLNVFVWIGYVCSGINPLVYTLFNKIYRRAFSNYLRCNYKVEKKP
T3 sequence (P28335 with tags, fused parts or gaps with the stated changes): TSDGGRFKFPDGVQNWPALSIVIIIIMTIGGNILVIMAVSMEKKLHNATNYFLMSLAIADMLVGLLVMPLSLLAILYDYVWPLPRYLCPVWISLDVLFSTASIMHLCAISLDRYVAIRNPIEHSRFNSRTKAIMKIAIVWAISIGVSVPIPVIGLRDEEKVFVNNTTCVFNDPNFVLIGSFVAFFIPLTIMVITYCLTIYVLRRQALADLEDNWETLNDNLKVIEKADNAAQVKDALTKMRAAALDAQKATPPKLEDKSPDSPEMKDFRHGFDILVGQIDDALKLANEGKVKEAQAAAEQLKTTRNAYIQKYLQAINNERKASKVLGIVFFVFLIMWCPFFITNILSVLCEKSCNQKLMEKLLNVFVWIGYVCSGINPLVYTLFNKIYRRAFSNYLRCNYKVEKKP
T1 sequence (P28223 whole entry): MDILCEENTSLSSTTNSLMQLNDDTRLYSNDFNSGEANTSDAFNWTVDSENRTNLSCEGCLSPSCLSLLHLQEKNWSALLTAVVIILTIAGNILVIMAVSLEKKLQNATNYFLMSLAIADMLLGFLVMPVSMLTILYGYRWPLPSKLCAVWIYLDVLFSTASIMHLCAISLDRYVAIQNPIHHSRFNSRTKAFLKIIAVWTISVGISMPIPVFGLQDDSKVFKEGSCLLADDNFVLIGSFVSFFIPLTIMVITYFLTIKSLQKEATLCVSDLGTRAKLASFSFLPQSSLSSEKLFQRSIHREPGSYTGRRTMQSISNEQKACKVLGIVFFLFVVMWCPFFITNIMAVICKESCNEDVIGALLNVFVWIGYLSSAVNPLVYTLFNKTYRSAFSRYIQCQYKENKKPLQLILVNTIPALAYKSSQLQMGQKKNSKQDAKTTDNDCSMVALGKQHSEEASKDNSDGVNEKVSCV

Structure (SMILES): COc1ccc2c(c1OC)C[C@@H]1c3c(cc4c(c3-2)OCO4)CCN1C [Compound 1, (–)-crebanine]
- IC50 (5-HT2A receptor): 564 nM
- (–)-Crebanine/CPM (Tm) ([1]; mutant A222^5.46V, n = 2): 59.55 °C
- Tm value decrease versus wild-type ([1]; mutation Ala222^5.46Val): 0.38 °C
- (–)-Crebanine/CPM (Tm) [2]: 55.46 °C
